Laboratory results from patent US20240384268A1, “Oligonucleotides” (Hudson Institute of Medical Research, priority 2021, published 2024).

Biological target: cGAS (Homo sapiens, UniProt Q8N884)
Test: ISD70-driven IP-10 (and IFN-β) production in THP-1 cells, ELISA
Format: cell-based
Set-up: endogenous in cells; host or cells: THP-1 (undifferentiated)
Conditions: MOE-modified ASO at 100 nM; averaged IP-10 levels relative to ISD70 condition

Sequence of cGAS (Q8N884 whole entry): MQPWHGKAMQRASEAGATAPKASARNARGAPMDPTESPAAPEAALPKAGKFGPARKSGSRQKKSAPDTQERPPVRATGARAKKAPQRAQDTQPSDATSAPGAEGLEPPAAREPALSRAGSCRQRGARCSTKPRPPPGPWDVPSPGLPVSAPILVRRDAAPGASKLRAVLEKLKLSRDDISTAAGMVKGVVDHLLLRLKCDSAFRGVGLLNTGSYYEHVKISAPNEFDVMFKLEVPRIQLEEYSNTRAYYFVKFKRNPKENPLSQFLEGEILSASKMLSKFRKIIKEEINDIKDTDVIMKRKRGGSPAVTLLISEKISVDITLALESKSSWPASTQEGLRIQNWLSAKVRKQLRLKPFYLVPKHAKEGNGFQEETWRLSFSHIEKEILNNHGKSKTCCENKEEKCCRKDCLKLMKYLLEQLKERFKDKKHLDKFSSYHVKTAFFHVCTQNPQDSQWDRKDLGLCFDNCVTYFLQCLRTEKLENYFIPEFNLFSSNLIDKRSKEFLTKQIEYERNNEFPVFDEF

Sequence | cGAS 100 nM
TCCAACACTTCGTGGGGTCC (antisense; 2'-MOE modified, pattern not given here) [HPRT-667 MOE] | 0.799
AGATCTGGCAGCCCATCAAC (antisense; 2'-MOE modified, pattern not given here) [CTNN2B-2516 MOE] | 0.677
GGGAAAGGTTATGCAAGGTC (antisense; 2'-MOE modified, pattern not given here) [CTNN2B-916 MOE] | 0.156
GGCATCCACCACGTCGTCCA (antisense; 2'-MOE modified, pattern not given here) [EGFR-3266 MOE] | 0.478
CCAACACTTCGTGGGGTCCT (antisense; 2'-MOE modified, pattern not given here) [HPRT-666 MOE] | 0.557
TTGCACACTTCGTACCCAAA (antisense; 2'-MOE modified, pattern not given here) [CAMSAP1-4915 MOE] | 0.392
TCAAAGGACTGAGGAAAGGG (antisense; 2'-MOE modified, pattern not given here) [CAMSAP1-6273 MOE] | 0.634
GGTCCATACCCAAGGCATCC (antisense; 2'-MOE modified, pattern not given here) [CTNN2B-2446 MOE] | 0.531
ATGTGATGGCCTCCCATCTC (antisense; 2'-MOE modified, pattern not given here) [HPRT-333 MOE] | 0.439
GCTTCAGGCGCTGCCTTGCC (antisense; 2'-MOE modified, pattern not given here) [CAMSAP1-2709 MOE] | 0.510
CAATGTGATGGCCTCCCATC (antisense; 2'-MOE modified, pattern not given here) [HPRT-335 MOE] | 0.362
GCGTATTATAGCCGATTAAC (antisense; 2'-MOE modified, pattern not given here) [NC1 2′MOE] | 0.504
GTGTCCTTGCACGTGGCTTC (antisense; 2'-MOE modified, pattern not given here) [EGFR-1015 MOE] | 0.384
TGTGATGGCCTCCCATCTCC (antisense; 2'-MOE modified, pattern not given here) [HPRT-332 MOE] | 0.438
GGAGCTTCGAGGCCCCAGGC (MOE modified, pattern not given here) [MB21D1-616 MOE] | 0.117
ATCCAACACTTCGTGGGGTC (antisense; 2'-MOE modified, pattern not given here) [HPRT-668 MOE] | 0.744
TAGTCAAGGGCATATCCTAC (antisense; 2'-MOE modified, pattern not given here) [HPRT-732 MOE] | 0.848
GGAGGTCTTGGCTTCGTGGA (antisense; 2'-MOE modified, pattern not given here) [MB21D1-524 MOE] | 0.450
AATCCGCCCAAAGGGAACTG (antisense; 2'-MOE modified, pattern not given here) [HPRT-1027 MOE] | 0.494

Sequence | cGAS 100 nM
GGTGTCCTTGCACGTGGCTT (antisense; 2'-MOE modified, pattern not given here) [EGFR-1016 MOE] | 0.315
GGTGGTGGCCACCCATCTCA (antisense; 2'-MOE modified, pattern not given here) [CTNN2B-2479 MOE] | 0.456
CAAGGCCCTTCGCACTTCTT (antisense; 2'-MOE modified, pattern not given here) [EGFR-1225 MOE] | 0.490
CAACACTTCGTGGGGTCCTT (antisense; 2'-MOE modified, pattern not given here) [HPRT-665 MOE] | 0.686
GCCGCTTTTCTGTCTGGTTC (antisense; 2'-MOE modified, pattern not given here) [CTNN2B-311 MOE] | 0.401
GATGCTCCTCGGTCTCCCTT (antisense; 2'-MOE modified, pattern not given here) [CAMSAP1-1850 MOE] | 0.413
TTGCCATGCTGGCTCGGACT (antisense; 2'-MOE modified, pattern not given here) [CAMSAP1-2584 MOE] | 0.518
TAGGCACTTTGCCTCCTTCT (antisense; 2'-MOE modified, pattern not given here) [EGFR-2859 MOE] | 0.378
AGGTCTTGGCTTCGTGGAGC (antisense; 2'-MOE modified, pattern not given here) [MB21D1-522 MOE] | 0.118
ACAACCCCTTTCACCATCCC (antisense; 2'-MOE modified, pattern not given here) [MB21D1-689 MOE] | 0.658
ATGTCCCGCCACTGGATGCT (antisense; 2'-MOE modified, pattern not given here) [EGFR-727 MOE] | 0.549
GATGGCCTCCCATCTCCTTC (antisense; 2'-MOE modified, pattern not given here) [HPRT-329 MOE] | 0.687
ACCCACTTGGCAGACCATCA (antisense; 2'-MOE modified, pattern not given here) [CTNN2B-1575 MOE] | 0.571
TGTCCTTGCACGTGGCTTCG (antisense; 2'-MOE modified, pattern not given here) [EGFR-1014 MOE] | 0.515
GTCCACATCCTGTGGCTCGT (antisense; 2'-MOE modified, pattern not given here) [CAMSAP1-2906 MOE] | 0.455
GAGGTCTTGGCTTCGTGGAG (antisense; 2'-MOE modified, pattern not given here) [MB21D1-523 MOE] | 0.380
CTTACTTTCCGAGGTGTCCA (antisense; 2'-MOE modified, pattern not given here) [CAMSAP1-1739 MOE] | 0.473
GAACCACGTCTGCTCTAACA (antisense; 2'-MOE modified, pattern not given here) [CAMSAP1-1635 MOE] | 0.518
CGTGTCTGGAAGCTTCCTTT (antisense; 2'-MOE modified, pattern not given here) [CTNN2B-808 MOE] | 0.426

Sequence | cGAS 100 nM
CACCCACTTGGCAGACCATC (antisense; 2'-MOE modified, pattern not given here) [CTNN2B-1576 MOE] | 0.658
GGTGGTCCACAACCCCTTTC (antisense; 2'-MOE modified, pattern not given here) [MB21D1-697 MOE] | 0.292
AACACTTCGTGGGGTCCTTT (antisense; 2'-MOE modified, pattern not given here) [HPRT-664 MOE] | 0.615
GGAGATTTCAGAGCAGCTTC (antisense; 2'-MOE modified, pattern not given here) [EGFR-4885 MOE] | 0.466
GCGACTATACGCGCAATATG (antisense; 2'-MOE modified, pattern not given here) [NC5 2′MOE] | 0.720
GCGTGTCTGGAAGCTTCCTT (antisense; 2'-MOE modified, pattern not given here) [CTNN2B-809 MOE] | 0.241
TTGGCTCGGCTTGCCTACTT (antisense; 2'-MOE modified, pattern not given here) [CAMSAP1-5594 MOE] | 0.295
CTGTGATCTTGACATGCTGC (antisense; 2'-MOE modified, pattern not given here) [EGFR-2790 MOE] | 0.180
ACTGACTGTCTTGAGGGTTC (antisense; 2'-MOE modified, pattern not given here) [MB21D1-1483 MOE] | 0.221
GTCTTGGCTTCGTGGAGCAG (antisense; 2'-MOE modified, pattern not given here) [MB21D1-520 MOE] | 0.291
GTCCTTGCACGTGGCTTCGT (antisense; 2'-MOE modified, pattern not given here) [EGFR-1013 MOE] | 0.374
CAGATAGCACCTTCAGCACT (antisense; 2'-MOE modified, pattern not given here) [CTNN2B-1294 MOE] | 0.388
GAGTCTCTGGAGCTTCCTCT (antisense; 2'-MOE modified, pattern not given here) [CAMSAP1-2456 MOE] | 0.250
GCGGAGGTCTTGGCTTCGTG (antisense; 2'-MOE modified, pattern not given here) [MB21D1-526 MOE] | 0.346
GTGTCTTCATCGGCCCTGCC (antisense; 2'-MOE modified, pattern not given here) [CAMSAP1-2113 MOE] | 0.606
TTCTGCAGCTTCCTTGTCCT (antisense; 2'-MOE modified, pattern not given here) [CTNN2B-2136 MOE] | 0.821
TCGCACTTCAGTCTGAGCAG (antisense; 2'-MOE modified, pattern not given here) [MB21D1-719 MOE] | 0.305
CTCTTGAAGCATCGTATCAC (antisense; 2'-MOE modified, pattern not given here) [CTNN2B-3648 MOE] | 0.791
